From patent US12637464B2, “Tetracyclic compounds for treating brain disorders” (The Regents of the University of California, priority 2021, dated 2026)

Experiments:
C57BL/6J mice [1] = assay: Head-twitch response (HTR) assay; format: in vivo, mouse
Description: Head-Twitch Response Assay. The HTR assay was performed using equal numbers of male and female C57BL/6J mice. The mice were obtained from The Jackson Laboratory (Sacramento, CA) and were approximately 8-12 weeks old at the time of the experiments. After compound administration, animals were placed into an empty arena (40 cm×40 cm) and filmed for 20 min. The arena was cleaned with 70% ethanol between trials. Animals were given a one-week washout period before being tested again. Animals were tested a maximum of 4 times. All drug treatments were randomized and no animal received the same drug and dose twice. For the blocking experiments, animals were administered (+)-JRT (1 mg/kg) or vehicle (saline) via IP injection and placed in an empty cage for 15 min. Animals were then administered LSD (0.2 mg/kg, IP), placed in the test arena, and filmed for 20 min. Videos were scored later by two blinded observers, and the results were averaged (Pearson correlation coefficient>0.9).

Sprague Dawley rats = assay: Rat forced swim test (FST); format: in vivo; settings: FST 24 h after compound administration; ketamine as comparator
Description: Rat Forced Swim Test (FST). This study was performed by Psychogenics (Paramus, NJ). Male Sprague Dawley rats were purchased from Envigo (Indianapolis, IN), and upon receipt, they were assigned unique identification numbers (tail marked) and group housed in ventilated cages with 3 rats per cage. All animals remained housed in groups of three for the remainder of the study. All rats were acclimated to the colony room for up to one week prior to dosing. During the period of acclimation, rats were examined and handled daily, and weighed to assure adequate health and suitability. The room temperature was maintained between 20° C. and 23° C. with a relative humidity of 30%-70%. Lab Rodent Diet 5001 (W.F. Fisher, Cat #11015) and water were provided ad libitum. […] All animals were carefully monitored to ensure their safety in the swim test and any animal unable to maintain a posture with its nose above water was immediately removed from the water and not used further in the study. […] This test lasted for 5 min and was video recorded. A blinded experimenter manually scored the videos for swimming, climbing, and immobility behavior. Scoring of the forced swim test was performed by trained technicians using a time sampling technique in which the animal in the video recorded test was viewed every 5 seconds and the behavior observed was noted (e.g., immobile, swimming, or climbing). […]

C57BL/6J mice [2] = assay: 4-odor discrimination and reversal; format: in vivo, mouse; settings: 1 mg/kg IP
Description: 4-Odor Discrimination and Reversal. A 4-odor discrimination and reversal behavioral assay was performed as described previously with slight modifications. Food restriction was begun five days before the discrimination and reversal tests to reduce animals' body weight to ˜80% of their starting weight. A total of 31 C57BL/6J mice 2-3 months of age were used in this assay. Eleven mice (5 males, 6 females) served as VEH/unstressed controls, 10 animals (4 males, 6 females) as a VEH/stress group, and 10 animals (4 males, 6 females) as a treatment/stress group. Both the VEH/stress and […] groups were subjected to a 7-day unpredictable mild stress protocol using previously validated stressors. Two stressors were delivered during the day, with additional overnight stressors on 4 of the days. […]

Compound: CCN(CC)C(=O)[C@@H]1C=C2c3cccc4ccn(c34)C[C@H]2N(C)C1 [(+)-JRT]
- HTR induced by LSD (antipsychotic properties) (C57BL/6J mice [1]; (+)-JRT 1 mg/kg pretreatment, LSD 0.2 mg/kg): antagonizing a HTR induced by LSD
- hallucinogenic potential (mouse head-twitch response, agonist mode) (C57BL/6J mice [1]; male and female mice, agonist mode): low hallucinogenic potential
- antidepressant-like effects in rat FST (Sprague Dawley rats): antidepressant-like effects comparable to ketamine at substantially lower doses
- stimulus discrimination (C57BL/6J mice [2]; 4-odor discrimination phase, stressed mice): does not impact stimulus discrimination
- cognitive deficits induced by unpredictable mild stress (reversal) (C57BL/6J mice [2]; reversal phase, after 7-day unpredictable mild stress): rescues cognitive deficits induced by unpredictable mild stress
